Entries after “also recorded” stand apart in the source; their conditions may differ.
Test system: B16-OVA melanoma
Assay: B16-OVA melanoma model in C57BL/6J WT mice, creatine supplementation
Format: in vivo, mouse
Conditions: i.p. injection or dietary supplementation, both routes
Procedure: To establish solid tumors, mice were s.c. injected above the right flank with 1×10^6 B16-OVA or 3×10^5 MC38 cells. Before injection, cells in log phase of growth were harvested and suspended in phosphate-buffered saline (PBS), and 50 μl of cell suspension were injected subcutaneously above the flank. Tumor size was periodically measured with a digital Vernier caliper (Thermo Fisher Scientific). For creatine supplementation via i.p. injection, […] monohydrate (cat #C3630, Sigma-Aldrich) was dissolved in sterile PBS and i.p. injected to experimental animals daily at a dose of 10.5 mg per animal per injection. […] To study the effects of creatine supplementation on suppressing tumor growth, B6 mice were inoculated with B16-OVA tumor cells and monitored for tumor growth, with or without receiving creatine supplementation via i.p. injection or diet. […] To study the T cell-dependence of creatine supplementation induced anti-tumor effects, B6-OVA tumor growth was monitored and compared in B6 mice receiving i.p. injection of an anti-CD3 T cell depleting antibody (clone RMP1-14; 100 μg/mouse/injection, twice per week) or an isotype control antibody (clone LTF-2, 100 μg/mouse/injection, twice per week), with or without i.p. supplement of creatine.

CN(CC(=O)O)C(=N)N [creatine]
tumor growth: effectively suppressed tumor growth to a similar extent; also recorded: tumor suppression benefits
